According to publication PMC9448382, “Fluorosulfate-containing pyrazole heterocycles as selective BuChE inhibitors: structure-activity relationship and biological evaluation for the treatment of Alzheimer’s disease” (Journal of Enzyme Inhibition and Medicinal Chemistry, 2022):

test system: not listed separately; experiment: in vitro; conditions: PAMPA
Description: Based on prior work[40]^,[41], a parallel artificial membrane permeation assay (PAMPA) for the blood-brain barrier (BBB) was used to determine the ability of the test chemical to penetrate into the brain. Six commercial medicines were purchased from Aladdin Reagents to validate the methodology. Energy Chemical provided the DMSO and dodecane. Avanti Polar Lipids provided the porcine brain lipid (PBL). Millipore provided the donor 96-well filter microplate with a PVDF membrane (pore size […]) and the acceptor indented 96-well microplate. Corning Inc. provided the 96-well UV plate (COSTAR). DMSO was used to dissolve commercial medications and test compounds at a concentration of 20 mg/mL. They were then diluted 200 times in a solution of PBS (pH 7.4 ± 0.1)/EtOH (70/30, v/v) to achieve a final concentration of 100 µg/mL. The donor microplate's fifilter membrane was coated with 4 µL of PBL in dodecane (20 mg/mL). The donor wells were then filled with 200 µL of diluted chemical solution and 300 µL of PBS/EtOH (70/30, v/v). To make the membrane contact with buffer solution, the donor fifilter plate was carefully positioned on top of the acceptor plate to form a “sandwich” assembly. At 25 °C, the sandwich was left undisturbed. The donor plate was carefully removed after 18 h of incubation, and the concentrations of test chemicals in the donor and acceptor wells were quantified using a UV plate spectroscopic reader (PerkinElmer VICTOR Nivo, Finland). Each sample was analysed at three wavelengths, in at least three independent experiments, in four wells.
Pe, permeability, refers to the ability of compounds to permeate the membranes through passive diffusion in the blood-brain barrier penetration assays.

For Clc1cccc(Cl)c1N=C1NCCN1 [Clonidine], the BBB penetration was “CNS+”.

same assay, conditions: PAMPA, pH 7.4

Compared with Clc1cccc(Cl)c1N=C1NCCN1 [Clonidine], CN1C(C(=O)Nc2ccccn2)=C(O)c2ccccc2S1(=O)=O [Piroxicam] is 3.7-fold lower in Papp: 8.3 ×10⁻⁶ cm/s for the first, 2.23 ×10⁻⁶ cm/s for the second.

Compound CC(=O)[C@H]1CC[C@H]2[C@@H]3CCC4=CC(=O)CC[C@]4(C)[C@H]3CC[C@]12C [Progesterone] has a Papp of 8.1 ×10⁻⁶ cm/s.

target: T1, BuChE from horse serum (Equus caballus, UniProt P81908); experiment: biochemical; format: biochemical; conditions: not given
T1 construct: BuChE from horse serum (C4290-1KU; Sigma); purchased Sigma C4290-1KU; host or cells: horse serum
Description: (§1) According to Ellman's method, assays were carried out on AChE from electric eel (C3389-500UN; Sigma) and BuChE from horse serum (C4290-1KU; Sigma). On a final volume of 500 μL, the experiment was carried out in 48-well plates. EeAChE or eqBuChE, 0.036 U/mL, and 0.1 M pH 8 phosphate buffer were added to each well. At 37 °C, they were pre-incubated for 20 min at various chemical concentrations. […] Along with the enzymatic breakdown of ACh or BuCh, the DTNB creates the yellow anion 5-thio-2-nitrobenzoic acid. In a Biotek Synergy HTX Multi-Mode reader, changes in absorbance were detected at 410 nm. Inhibition curves were used to calculate the IC50 values (log inhibitor concentration vs percent of inhibition). The same conditions were used in a control experiment without the inhibitor, and the blank comprised buffer, DMSO, DTNB, and substrate.
(§2) The IC50 values were calculated by SPSS 17.0.

T1 sequence (P81908 whole entry): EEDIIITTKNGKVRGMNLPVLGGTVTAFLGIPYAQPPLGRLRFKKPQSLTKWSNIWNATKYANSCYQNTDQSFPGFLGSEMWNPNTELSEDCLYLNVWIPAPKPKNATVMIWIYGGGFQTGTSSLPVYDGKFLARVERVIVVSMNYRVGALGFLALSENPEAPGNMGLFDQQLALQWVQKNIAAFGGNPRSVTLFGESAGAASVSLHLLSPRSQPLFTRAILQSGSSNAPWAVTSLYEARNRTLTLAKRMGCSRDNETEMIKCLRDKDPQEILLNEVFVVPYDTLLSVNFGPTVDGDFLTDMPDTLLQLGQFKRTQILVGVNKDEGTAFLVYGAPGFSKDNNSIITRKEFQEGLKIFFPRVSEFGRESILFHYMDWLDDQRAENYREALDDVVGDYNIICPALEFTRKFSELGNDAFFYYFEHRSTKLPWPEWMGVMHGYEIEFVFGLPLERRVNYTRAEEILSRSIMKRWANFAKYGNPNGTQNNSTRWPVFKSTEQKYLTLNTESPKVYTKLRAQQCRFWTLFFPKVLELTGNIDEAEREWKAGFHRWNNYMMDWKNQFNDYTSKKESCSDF

O=S(=O)(F)Oc1cc(-c2ccccc2)nn1-c1ccccc1 [Compound K1] and O=S(=O)(F)Oc1cc(-c2ccccc2)nn1-c1ccc(F)cc1 [Compound K2] are within error of each other in IC50: 2.28 ± 0.64 µM for the first, 1.73 ± 0.62 µM for the second.

Cc1ccc(-n2nc(-c3ccccc3)cc2OS(=O)(=O)F)cc1 [Compound K4] and Cc1ccc(-n2nc(-c3ccccc3)cc2OS(=O)(=O)F)cc1C [Compound K5] are within error of each other in IC50: 2.35 ± 1.02 µM for the first, 2.23 ± 0.31 µM for the second.

O=S(=O)(F)Oc1cc(-c2ccccc2)nn1-c1ccccn1 [Compound K7] and Cc1cc(OS(=O)(=O)F)n(-c2ccccc2)n1 [Compound K13] are within error of each other in IC50: 9.89 ± 0.87 µM for the first, 9.16 ± 0.53 µM for the second.

Going from O=S(=O)(F)Oc1cc(-c2ccccc2)nn1C1CCCCC1 [Compound K8] to O=S(=O)(F)Oc1cc(C2CC2)nn1-c1ccccc1 [Compound K26], the IC50 rises from 5.84 ± 0.87 µM to 14.4 ± 1.08 µM (2.5-fold). The first is the more potent here.

First: O=S(=O)(F)Oc1cc(-c2ccccc2)n[nH]1 [Compound K10]
Second: CC(C)c1cc(OS(=O)(=O)F)n(-c2ccccc2)n1 [Compound K20]
The IC50 of the first is 1.6-fold lower: 6.92 ± 1.41 µM for the first, 11.25 ± 0.11 µM for the second. The first is the more potent here.

Cc1cc(OS(=O)(=O)F)n(-c2ccc(F)cc2)n1 [Compound K14] and Cc1cc(OS(=O)(=O)F)n(-c2ccc(Cl)cc2)n1 [Compound K15] are within error of each other in IC50: 5.5 ± 0.09 µM for the first, 5.26 ± 0.39 µM for the second.

Going from Cc1cc(OS(=O)(=O)F)n(-c2ccc(Br)cc2)n1 [Compound K16] to Cc1cccc(-n2nc(C)cc2OS(=O)(=O)F)c1 [Compound K17], the IC50 rises from 7.64 ± 0.41 µM to 19.2 ± 0.69 µM (2.5-fold).

Cc1cc(OS(=O)(=O)F)n(-c2ccc(C)c(C)c2)n1 [Compound K18] and Cc1ccc(-n2nc(C(C)C)cc2OS(=O)(=O)F)cc1C [Compound K23] are within error of each other in IC50: 3.31 ± 0.7 µM for the first, 3.98 ± 0.09 µM for the second.

First: CC(C)c1cc(OS(=O)(=O)F)n(-c2ccc(F)cc2)n1 [Compound K21]
Second: Cc1ccc(-n2nc(C(C)C)cc2OS(=O)(=O)F)cc1 [Compound K22]
The IC50 of the first is 2.6-fold lower: 6.9 ± 0.42 µM for the first, 18 ± 0.34 µM for the second. The first is the more potent here.

CCCc1cc(OS(=O)(=O)F)n(-c2ccc(Cl)cc2)n1 [Compound K24] and CCCc1cc(OS(=O)(=O)F)n(-c2ccc(OC)cc2)n1 [Compound K25] are within 1.5-fold of each other in IC50: 4.59 ± 0.06 µM for the first, 3.47 ± 0.04 µM for the second.

same assay, conditions: BuChE from horse serum; 20 µM; na = no inhibitory activity at 20 µM

Going from CC(C)(C)n1nc(-c2ccccc2)cc1OS(=O)(=O)F [Compound K9] to Cc1nn(-c2ccccc2)c(OS(=O)(=O)F)c1C [Compound K11], the “BuChE % inhibition at 20 µM” value rises from 30.9 ± 1.5% to 45.2 ± 1.8%.

For Cc1nn(-c2ccccn2)c(OS(=O)(=O)F)c1C [Compound K12], the “BuChE % inhibition at 20 µM” value was 20.7 ± 1.7%.

For Cc1cc(OS(=O)(=O)F)n(C(C)(C)C)n1 [Compound K19], the “BuChE % inhibition at 20 µM” value was “no activity”.

same assay, conditions: read-out: BuChE % inhibition at 20 µM

For COc1ccc(-n2nc(-c3ccccc3)cc2OS(=O)(=O)F)cc1 [Compound K6], the inhibition at 20 µM was 47.9 ± 1.9%.

same assay, conditions: read-out: BuChE % inhibition at 20 µM; BuChE from horse serum; 20 µM; na = no inhibitory activity at 20 µM

O=C1CC(c2ccccc2)=NN1c1ccc(F)cc1 [Compound M2] and O=C1CC(c2ccccc2)=NN1c1ccc(Cl)cc1 [Compound M3] are within error of each other in inhibition at 20 µM: 27.7 ± 11.7% for the first, 25.4 ± 5.4% for the second.

Cc1ccc(N2N=C(c3ccccc3)CC2=O)cc1C [Compound M4] showed an inhibition at 20 µM of 44.1 ± 13.8%.

target: T2, AChE from electric eel (Electrophorus electricus, UniProt O42275); experiment: EeAChE inhibition assay (Ellman's method); format: biochemical; conditions: 20 µM, na = no inhibitory activity at 20 µM
T2 construct: AChE from electric eel (C3389-500UN; Sigma); purchased Sigma C3389-500UN
Description: as §1, §2

T2 sequence (O42275 24-633): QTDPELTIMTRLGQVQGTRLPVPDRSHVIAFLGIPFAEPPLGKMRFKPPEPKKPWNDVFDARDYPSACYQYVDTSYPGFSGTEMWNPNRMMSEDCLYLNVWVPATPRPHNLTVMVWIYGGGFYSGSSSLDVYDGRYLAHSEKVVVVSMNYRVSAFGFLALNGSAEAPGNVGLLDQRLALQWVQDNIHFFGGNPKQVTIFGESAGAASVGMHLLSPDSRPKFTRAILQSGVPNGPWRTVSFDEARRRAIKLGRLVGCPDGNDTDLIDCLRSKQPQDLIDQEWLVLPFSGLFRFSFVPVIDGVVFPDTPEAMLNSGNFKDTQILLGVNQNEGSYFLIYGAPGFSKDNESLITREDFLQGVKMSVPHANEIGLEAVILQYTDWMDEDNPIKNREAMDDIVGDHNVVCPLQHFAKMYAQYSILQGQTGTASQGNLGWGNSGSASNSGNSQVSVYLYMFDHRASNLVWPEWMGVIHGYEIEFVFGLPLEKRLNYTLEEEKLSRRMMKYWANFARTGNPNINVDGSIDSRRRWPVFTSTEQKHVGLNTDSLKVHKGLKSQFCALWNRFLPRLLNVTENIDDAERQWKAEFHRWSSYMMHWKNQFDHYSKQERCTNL

Going from CC(C)(C)n1nc(-c2ccccc2)cc1OS(=O)(=O)F [Compound K9] to Cc1nn(-c2ccccc2)c(OS(=O)(=O)F)c1C [Compound K11], the “AChE % inhibition at 20 µM” value falls from 10.1 ± 0.4% to 7.2 ± 1.0%.

For Cc1nn(-c2ccccn2)c(OS(=O)(=O)F)c1C [Compound K12], the “AChE % inhibition at 20 µM” value was 42.8 ± 0.8%.

same assay, conditions: mean ± SEM

First: O=S(=O)(F)Oc1cc(-c2ccccc2)nn1-c1ccccn1 [Compound K7]
Second: O=S(=O)(F)Oc1cc(C2CC2)nn1-c1ccccc1 [Compound K26]
The IC50 of the first is 4-fold higher: 19.39 ± 0.01 µM for the first, 4.82 ± 0.07 µM for the second.

First: CC(C)c1cc(OS(=O)(=O)F)n(-c2ccc(F)cc2)n1 [Compound K21]
Second: Cc1ccc(-n2nc(C(C)C)cc2OS(=O)(=O)F)cc1 [Compound K22]
The IC50 of the first is 3-fold higher: 7.79 ± 0.07 µM for the first, 2.6 ± 0.27 µM for the second.

same assay, conditions: read-out: AChE % inhibition at 20 µM, 20 µM, na = no inhibitory activity at 20 µM

Compared with O=S(=O)(F)Oc1cc(-c2ccccc2)nn1-c1ccccc1 [Compound K1], O=S(=O)(F)Oc1cc(-c2ccccc2)nn1-c1ccc(F)cc1 [Compound K2] is lower in inhibition at 20 µM: 33.6 ± 1.6% for the first, 27.5 ± 2.7% for the second.

Cc1ccc(-n2nc(-c3ccccc3)cc2OS(=O)(=O)F)cc1 [Compound K4] and COc1ccc(-n2nc(-c3ccccc3)cc2OS(=O)(=O)F)cc1 [Compound K6] are within error of each other in inhibition at 20 µM: 25.9 ± 0.9% for the first, 25.7 ± 1.5% for the second.

Compared with Cc1ccc(-n2nc(-c3ccccc3)cc2OS(=O)(=O)F)cc1C [Compound K5], Cc1cc(OS(=O)(=O)F)n(-c2ccc(C)c(C)c2)n1 [Compound K18] is lower in inhibition at 20 µM: 24.4 ± 2.1% for the first, 8.1 ± 0.5% for the second.

First: O=S(=O)(F)Oc1cc(-c2ccccc2)nn1C1CCCCC1 [Compound K8]
Second: O=S(=O)(F)Oc1cc(-c2ccccc2)n[nH]1 [Compound K10]
The inhibition at 20 µM of the first is lower: 25.1 ± 1.2% for the first, 32 ± 1.2% for the second.

Compared with Cc1cc(OS(=O)(=O)F)n(-c2ccccc2)n1 [Compound K13], CC(C)c1cc(OS(=O)(=O)F)n(-c2ccccc2)n1 [Compound K20] is higher in inhibition at 20 µM: 37.5 ± 1.4% for the first, 41.6 ± 0.7% for the second.

Going from Cc1cc(OS(=O)(=O)F)n(-c2ccc(F)cc2)n1 [Compound K14] to Cc1cc(OS(=O)(=O)F)n(-c2ccc(Cl)cc2)n1 [Compound K15], the inhibition at 20 µM falls from 48.2 ± 1% to 45.2 ± 1.3%.

First: Cc1cc(OS(=O)(=O)F)n(-c2ccc(Br)cc2)n1 [Compound K16]
Second: Cc1cccc(-n2nc(C)cc2OS(=O)(=O)F)c1 [Compound K17]
The inhibition at 20 µM of the first is higher: 37.2 ± 0.7% for the first, 33.4 ± 1.3% for the second.

First: Cc1ccc(-n2nc(C(C)C)cc2OS(=O)(=O)F)cc1C [Compound K23]
Second: CCCc1cc(OS(=O)(=O)F)n(-c2ccc(OC)cc2)n1 [Compound K25]
The inhibition at 20 µM of the first is higher: 21.4 ± 1.1% for the first, 10.3 ± 0.6% for the second.

Compared with CCCc1cc(OS(=O)(=O)F)n(-c2ccc(Cl)cc2)n1 [Compound K24], O=C1CC(c2ccccc2)=NN1c1ccc(Cl)cc1 [Compound M3] is lower in inhibition at 20 µM: 41.8 ± 0.2% for the first, 26.9 ± 1% for the second.

First: O=C1CC(c2ccccc2)=NN1c1ccccc1 [Compound M1]
Second: O=C1CC(c2ccccc2)=NN1c1ccc(F)cc1 [Compound M2]
The inhibition at 20 µM of the first is lower: 8.8 ± 2.6% for the first, 37 ± 3.3% for the second.

Cc1ccc(N2N=C(c3ccccc3)CC2=O)cc1C [Compound M4] gave an inhibition at 20 µM of 10.7 ± 1.9%.

test system: male ICR mice; experiment: not given; conditions: Aβ1–42 10 µg icv, K3 10 mg/kg po, donepezil 15 mg/kg po, Day 3 to Day 14

With COc1cc2c(cc1OC)C(=O)C(CC1CCN(Cc3ccccc3)CC1)C2 (stereo not shown) [Donepezil, reference compound] the “effect on Aβ1–42-induced cognitive dysfunction (MWM)” value was “significantly improved”.
